The NIST ThermoML archive (doi:10.1016/j.fluid.2015.06.045)
Several values for one entry are separate records, joined by “and”; a condition that tells them apart may be missing. Equal entries are not always repeated.

Key:
[1] = molar heat capacity at constant pressure
[2] = Closed cell (Static) method

NCCO [2-aminoethan-1-ol]
[1], 100 kPa, Ideal gas
Conditions | molar heat capacity at constant pressure [J/K/mol]
100 K | 42.58
150 K | 53.66
200 K | 64.26
250 K | 74.41
273.15 K | 79.16
298.15 K | 84.38
300 K | 84.78
400 K | 106.54
500 K | 127.9
600 K | 146.98
700 K | 163.08
800 K | 176.25
900 K | 186.86
1000 K | 195.39

[1], 101.33 kPa, Metastable liquid, Large sample (1 g) DSC
Conditions | molar heat capacity at constant pressure
265.75 K | 160.55 J/K/mol
270.85 K | 161.8 J/K/mol
275.96 K | 162.46 J/K/mol
281.07 K | 163.71 J/K/mol
286.17 K | 164.54 J/K/mol
291.28 K | 165.54 J/K/mol and 165.87 J/K/mol
296.38 K | 166.54 J/K/mol and 167.29 J/K/mol
301.49 K | 168.12 J/K/mol and 167.79 J/K/mol
306.59 K | 169.2 J/K/mol and 169.12 J/K/mol
311.69 K | 170.28 J/K/mol and 170.53 J/K/mol
316.8 K | 171.36 J/K/mol and 171.69 J/K/mol
321.9 K | 172.61 J/K/mol and 173.11 J/K/mol
327.01 K | 174.1 J/K/mol and 174.27 J/K/mol
332.12 K | 175.68 J/K/mol and 175.35 J/K/mol
337.22 K | 176.68 J/K/mol and 177.18 J/K/mol
342.33 K | 178.1 J/K/mol and 178.59 J/K/mol
347.43 K | 179.51 J/K/mol and 179.43 J/K/mol
352.54 K | 181.26 J/K/mol and 181.34 J/K/mol

vapor or sublimation pressure, [2]
Conditions | Crystal | Metastable liquid
258.17 K | 0.00078 kPa and 0.00077 kPa and 0.00076 kPa | –
263.17 K | 0.00142 kPa | –
268.17 K | 0.00264 kPa and 0.00265 kPa | –
273.65 K | 0.0052 kPa and 0.00519 kPa and 0.00518 kPa | 0.00646 kPa
275.65 K | 0.00658 kPa | 0.00785 kPa
278.15 K | 0.00883 kPa and 0.00884 kPa | 0.00997 kPa and 0.00998 kPa
280.65 K | 0.01183 kPa and 0.01185 kPa | 0.01262 kPa and 0.01263 kPa
283.15 K | 0.01576 kPa and 0.01575 kPa | 0.0159 kPa and 0.01591 kPa and 0.01587 kPa
285.65 K | – | 0.0199 kPa and 0.01992 kPa
288.15 K | – | 0.02494 kPa and 0.02505 kPa and 0.02501 kPa
290.65 K | – | 0.03092 kPa and 0.03099 kPa
293.15 K | – | 0.03842 kPa and 0.03848 kPa and 0.03849 kPa
295.65 K | – | 0.04735 kPa and 0.04742 kPa and 0.04744 kPa
298.15 K | – | 0.05877 kPa and 0.05861 kPa and 0.05859 kPa
300.65 K | – | 0.07124 kPa and 0.07125 kPa and 0.07143 kPa
303.15 K | – | 0.08725 kPa and 0.08736 kPa
303.16 K | – | 0.08722 kPa

CN1CCCC1=O [N-methylpyrrolidone]
[1], 100 kPa, Ideal gas
Conditions | molar heat capacity at constant pressure [J/K/mol]
100 K | 59.31
150 K | 72.28
200 K | 85.04
250 K | 99.6
273.15 K | 106.98
298.15 K | 115.26
300 K | 115.89
400 K | 149.87
500 K | 180.98
600 K | 207.43
700 K | 229.6
800 K | 248.26
900 K | 264.08
1000 K | 277.55

[1], 101.33 kPa, Liquid, Large sample (1 g) DSC
Conditions | molar heat capacity at constant pressure
265.75 K | 168.2 J/K/mol and 168.12 J/K/mol
270.85 K | 169.2 J/K/mol and 169.03 J/K/mol
275.96 K | 169.62 J/K/mol and 169.86 J/K/mol
281.07 K | 170.95 J/K/mol and 170.78 J/K/mol
286.17 K | 171.86 J/K/mol
291.28 K | 173.36 J/K/mol and 172.86 J/K/mol
296.38 K | 173.94 J/K/mol and 174.27 J/K/mol
301.49 K | 175.35 J/K/mol and 175.52 J/K/mol
306.59 K | 176.52 J/K/mol
311.69 K | 177.93 J/K/mol and 177.85 J/K/mol
316.8 K | 178.93 J/K/mol and 179.09 J/K/mol
321.9 K | 180.01 J/K/mol and 180.42 J/K/mol
327.01 K | 181.84 J/K/mol and 181.75 J/K/mol
332.12 K | 183.25 J/K/mol
337.22 K | 184.41 J/K/mol and 184.66 J/K/mol
342.33 K | 185.75 J/K/mol and 186.16 J/K/mol
347.43 K | 187.24 J/K/mol
352.54 K | 188.57 J/K/mol and 188.82 J/K/mol

[2], Liquid
Conditions | vapor or sublimation pressure
273.65 K | 0.00631 kPa and 0.0063 kPa
278.15 K | 0.0094 kPa and 0.00937 kPa and 0.00938 kPa
283.15 K | 0.01432 kPa
288.15 K | 0.02159 kPa and 0.02162 kPa
293.15 K | 0.03193 kPa and 0.03195 kPa and 0.03196 kPa
298.15 K | 0.04664 kPa and 0.04665 kPa and 0.0466 kPa
303.15 K | 0.06708 kPa and 0.06709 kPa
308.15 K | 0.09518 kPa and 0.09516 kPa
308.17 K | 0.0951 kPa
